Test results taken from patent publication US10144715B2, “Piperazine derivatives as liver X receptor modulators” (priority 2014, dated 2018).
Read-outs that look alike come from different tables or passages of the source.

Key:
[1] = target: T1, Gal4 DNA binding domain fused to the LBD of LXRα in HEK293 cells (Homo sapiens (Human), UniProt Q13133); experiment: LXR luciferase transcriptional reporter gene assay, antagonist mode (200 nM T0901317), LXRα; format: cell-based; details: for IC50: read-out: Cell LXRα IC50
T1 sequence (Q13133 209-447): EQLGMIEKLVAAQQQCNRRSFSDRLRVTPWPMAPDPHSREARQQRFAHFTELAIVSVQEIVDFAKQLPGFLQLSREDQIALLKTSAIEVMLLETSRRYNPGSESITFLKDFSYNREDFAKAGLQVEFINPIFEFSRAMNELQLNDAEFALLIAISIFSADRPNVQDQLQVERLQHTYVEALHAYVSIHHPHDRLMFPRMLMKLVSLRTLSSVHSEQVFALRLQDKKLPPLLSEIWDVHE

[2] = target: T2, LXR β LBD protein (Homo sapiens (Human), UniProt P55055); experiment: biochemical; format: binding; details: read-out: LXRβ Binding Ki
Target sequence in this assay (P55055 222-460 limits assumed): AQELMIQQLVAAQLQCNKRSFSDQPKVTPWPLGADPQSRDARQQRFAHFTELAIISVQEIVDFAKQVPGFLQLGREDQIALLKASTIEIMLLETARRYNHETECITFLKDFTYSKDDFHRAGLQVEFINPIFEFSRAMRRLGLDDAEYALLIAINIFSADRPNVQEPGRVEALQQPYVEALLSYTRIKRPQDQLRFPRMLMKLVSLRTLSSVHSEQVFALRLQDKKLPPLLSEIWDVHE

[3] = target: T2, LXR β LBD protein; experiment: biochemical; format: biochemical; details: for EC50: read-out: FRET LXRβ EC50
Target sequence in this assay (P55055 222-460): as the sequence (P55055 222-460 limits assumed) above

[4] = target: T3, Gal4 DNA binding domain fused to the LBD of LXRβ in HEK293 cells (Homo sapiens (Human), UniProt P55055); experiment: cell-based
T3 sequence (P55055 222-460 limits assumed): as above

[5] = target: T3, Gal4 DNA binding domain fused to the LBD of LXRβ in HEK293 cells; experiment: cell-based; format: cell-based
[6] = target: T1, Gal4 DNA binding domain fused to the LBD of LXRα in HEK293 cells; experiment: LXR luciferase transcriptional reporter gene assay, agonist mode, LXRα; format: cell-based; details: for EC50: read-out: Cell LXRα EC50
[7] = target: LXR α LBD protein (Homo sapiens (Human), UniProt Q13133); experiment: Human LXRα coactivator recruitment FRET assay, agonist mode; format: biochemical; details: agonist mode
LXR α LBD protein, sequence (Q13133 209-447): as the sequence (Q13133 209-447) above
Summary of the method: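 LXRα- or LXRβ-LBD at 10 nM (2×) mixed with compound in DMSO, then fluorescein-SRC2-3 peptide 200 nM and Tb-anti-GST antibody 20 nM (4×) added; 2 h at rt. Time-resolved FRET read, 100 µs delay, 200 µs window; EC50 from four-parameter fit of percent control.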

[8] = antagonist mode, 200 nM T0901317, HEK293 reporter gene assay
[9] = agonist mode, read-out: Cell LXRβ EC50
[10] = antagonist mode, 200 nM T0901317, HEK293 reporter gene assay, read-out: Cell LXRβ IC50

Compound	Cell LXRα efficacy [1]	IC50 [1, 8] [nM]	Ki [2] [nM]	FRET LXRβ efficacy ([3]; agonist mode)	EC50 [3] [nM]	EC50 [4] [nM]	Cell LXRβ efficacy ([4]; agonist mode)	IC50 [5] [nM]	Cell LXRβ efficacy [5, 8]	Cell LXRα efficacy [6]	EC50 ([6]; agonist mode) [nM]	EC50 [7] [nM]	FRET LXRα efficacy [7] [%]	IC50 [1] [nM]	EC50 ([3]; agonist mode) [nM]	EC50 [4, 9] [nM]	IC50 [5, 10] [nM]	EC50 [6] [nM]
CS(=O)(=O)c1cccc(N2CCN(Cc3ccc(C(F)(F)F)c(F)c3)[C@@H](c3ccccc3)C2)c1 (single isomer, unassigned) [46-26]	7585 (36) %	7580	58	411 (73) %	411	676	676 (62) %	6800	6798 (54) %	1479 (62) %	1480	2860	59	–	–	–	–	–
NS(=O)(=O)c1cccc(N2CCN(C[C@H]3CC[C@@H](C(F)(F)F)CC3)[C@@H](c3ccccc3)C2)c1 (single isomer, unassigned) [48-35]	7574 (100) %	–	–	22%	–	–	27%	–	38%	351 (62) %	–	416	52	7570	46	120	317	351
CS(=O)(=O)c1cccc(N2CCN(C[C@H]3CC[C@H](C(F)(F)F)CC3)[C@@H](c3ccccc3)C2)c1 (single isomer, unassigned) [48-33]	5224 (46) %	–	–	82%	–	–	32%	–	52%	1245 (49) %	–	4870	74	5220	375	466	583	1240
CC(C)[C@H]1CC[C@H](CN2CCN(c3cccc(S(C)(=O)=O)c3)C[C@@H]2c2ccccc2)CC1 (single isomer, unassigned) [48-15]	–	–	–	32%	–	–	21%	–	60%	1658 (31) %	–	2310	40	> 10000	197	564	455	1660
benzyl (R)-2-isobutyl-4-(3-(methylsulfonyl)phenyl)piperazine-1-carboxylate [1-13]	4105 (131) %	–	–	52%	–	–	7%	–	132%	2139 (16) %	–	586	37	4100	36	265	756	2140
CS(=O)(=O)c1cccc(N2CCN(Cc3ccc(C(F)(F)F)cc3)[C@@H](c3ccc(F)cc3)C2)c1 [46-24, (S)-2-(4-fluorophenyl)-4-(3-(methylsulfonyl)phenyl)-1-(4-(trifluoromethyl)benzyl)piperazine]	3139 (51) %	3140	359	347 (45) %	347	636	636 (27) %	5820	5823 (95) %	2711 (31) %	2710	2700	39	–	–	–	–	–
C[C@]1(c2ccccc2)CN(c2cccc(S(C)(=O)=O)c2)CCN1Cc1ccc(C(F)(F)F)c(Cl)c1 (single isomer, unassigned) [46-34]	7451 (87) %	7450	32	–	257	587	587 (10) %	688	688 (70) %	2082 (24) %	2080	862	40	–	–	–	–	–
